According to ChEMBL document CHEMBL3044741, “Synthesis of novel biologically active methylene derivatives of sydnones” (Med Chem Res, 2013):
Converted amounts (≈) assume the structure as drawn.

What was measured:
[1] = Selectivity index, ratio of CC50 for human MT4 cells to IC50 for HIV2 ROD; type: functional
[2] = Cytotoxicity against human MT4 cells by MTT assay; type: cell-based
[3] = Selectivity index, ratio of CC50 for human MT4 cells to IC50 for HIV1 3B; type: functional
[4] = tested on: Human immunodeficiency virus 2; assay: Antiviral activity against HIV2 ROD infected in MT4 cells assessed as inhibition of virus-induced cytopathogenicity by MTT assay; type: functional, organism-based; details: Human immunodeficiency virus 2, ISOLATE ROD
Human alphaherpesvirus 3 [5] = assay: Antiviral activity against thymidine kinase-deficient Varicella-zoster virus infected in HEL cells assessed as reduction in plaque formation; type: functional, organism-based; details: Human alphaherpesvirus 3, HEL
[6] = tested on: Human immunodeficiency virus 1; assay: Antiviral activity against HIV1 3B infected in MT4 cells assessed as inhibition of virus-induced cytopathogenicity by MTT assay; type: functional, organism-based; details: Human immunodeficiency virus 1, 3B
Human alphaherpesvirus 3 [7] = assay: Antiviral activity against Varicella-zoster virus Oka expressing thymidine kinase infected in HEL cells assessed as reduction in plaque formation; type: functional, organism-based; details: Human alphaherpesvirus 3, strain Oka vaccine
[8] = Cytotoxicity against human HEL cells; type: cell-based
Cytomegalovirus [9] = assay: Antiviral activity against Cytomegalovirus Davis in HEL cells assessed as reduction in plaque formation; type: functional, organism-based; details: Human betaherpesvirus 5, Davis
[10] = Cytotoxicity against human HEL cells assessed as alteration in cell morphology; type: cell-based
Cytomegalovirus [11] = assay: Antiviral activity against Cytomegalovirus AD-169 infected in HEL cells assessed as reduction in plaque formation; type: functional, organism-based; details: Human betaherpesvirus 5, AD-169, HEL
Aspergillus niger [12] = assay: Antifungal activity against Aspergillus niger MTCC 282; type: functional
Aspergillus clavatus [13] = assay: Antifungal activity against Aspergillus clavatus MTCC 1323; type: functional
Candida albicans [14] = assay: Antifungal activity against Candida albicans MTCC 227; type: functional
Aspergillus niger [15] = assay: Antifungal activity against Aspergillus niger MTCC 282 at 250 ug/ml after 74 hrs by Kirby-Bauer method; type: functional; details: MTCC 282, 74 h, read-out: IZ
Aspergillus clavatus [16] = assay: Antifungal activity against Aspergillus clavatus MTCC 1323 at 250 ug/ml after 74 hrs by Kirby-Bauer method; type: functional; details: for zone of inhibition at 250 µg/mL: MTCC 1323, 74 h, read-out: IZ
Candida albicans [17] = assay: Antifungal activity against Candida albicans MTCC 227 at 250 ug/ml after 74 hrs by Kirby-Bauer method; type: functional; details: MTCC 227, 74 h, read-out: IZ
Pseudomonas aeruginosa [18] = assay: Antibacterial activity against Pseudomonas aeruginosa MTCC 424 after 24 hrs by broth dilution method; type: functional; details: MTCC 424, 24 h
Streptococcus pyogenes [19] = assay: Antibacterial activity against Streptococcus pyogenes MTCC 442 after 24 hrs by broth dilution method; type: functional; details: MTCC 442, 24 h
Escherichia coli [20] = assay: Antibacterial activity against Escherichia coli MTCC 443 after 24 hrs by broth dilution method; type: functional; details: MTCC 443, 24 h
Staphylococcus aureus [21] = assay: Antibacterial activity against Staphylococcus aureus MTCC 96 after 24 hrs by broth dilution method; type: functional; details: MTCC 96, 24 h
Pseudomonas aeruginosa [22] = assay: Antibacterial activity against Pseudomonas aeruginosa MTCC 424 at 250 ug/ml after 24 hrs by Kirby-Bauer method; type: functional; details: MTCC 424, 24 h, read-out: IZ
Escherichia coli [23] = assay: Antibacterial activity against Escherichia coli MTCC 443 at 250 ug/ml after 24 hrs by Kirby-Bauer method; type: functional; details: MTCC 443, 24 h, read-out: IZ
Streptococcus pyogenes [24] = assay: Antibacterial activity against Streptococcus pyogenes MTCC 442 at 250 ug/ml after 24 hrs by Kirby-Bauer method; type: functional; details: MTCC 442, 24 h, read-out: IZ
Staphylococcus aureus [25] = assay: Antibacterial activity against Staphylococcus aureus MTCC 96 at 250 ug/ml after 24 hrs by Kirby-Bauer method; type: functional; details: MTCC 96, 24 h, read-out: IZ

| Compound | EC50 (Human alphaherpesvirus 3 [5]) [µg/mL] | EC50 (Human alphaherpesvirus 3 [7]) [µg/mL] | CC50 [8] [µg/mL] | EC50 (Cytomegalovirus [9]) [µg/mL] | MCC [10] [µg/mL] | EC50 (Cytomegalovirus [11]) [µg/mL] | MIC (Aspergillus niger [12]) [µg/mL] | MIC (Aspergillus clavatus [13]) [µg/mL] | MIC (Candida albicans [14]) [µg/mL] | MIC (Pseudomonas aeruginosa [18]) [µg/mL] | MIC (Streptococcus pyogenes [19]) [µg/mL] | MIC (Escherichia coli [20]) [µg/mL] | MIC (Staphylococcus aureus [21]) [µg/mL] | zone of inhibition at 250 µg/mL (Pseudomonas aeruginosa [22]) [mm] | zone of inhibition at 250 µg/mL (Escherichia coli [23]) [mm] | zone of inhibition at 250 µg/mL (Streptococcus pyogenes [24]) [mm] | zone of inhibition at 250 µg/mL (Staphylococcus aureus [25]) [mm] | further results |
| --- | --- | --- | --- | --- | --- | --- | --- | --- | --- | --- | --- | --- | --- | --- | --- | --- | --- | --- |
| Cc1ccc(-[n+]2noc([O-])c2CN2CCOCC2)cc1 | > 20 | > 20 | 38.4 (≈ 139 µM) | > 20 | 100 | > 20 | 1000 (≈ 3630 µM) | 500 (≈ 1820 µM) | 500 (≈ 1820 µM) | 250 (≈ 908 µM) | 250 (≈ 908 µM) | 200 (≈ 726 µM) | 100 (≈ 363 µM) | 18 | 19 | 19 | 21 | Ratio CC50/IC50 [1]: <1; CC50 [2]: 16.6 µg/mL (≈ 60.2 µM); Ratio CC50/IC50 [3]: <1; IC50 [4]: > 16.6 µg/mL; IC50 [6]: > 16.6 µg/mL; zone of inhibition at 250 µg/mL (Aspergillus niger [15]): 18 mm; zone of inhibition at 250 µg/mL (Aspergillus clavatus [16]): 21 mm; zone of inhibition at 250 µg/mL (Candida albicans [17]): 23 mm |
| Nc1ccn([C@H]2CC[C@@H](CO)O2)c(=O)n1 [ZALCITABINE] | – | – | – | – | – | – | – | – | – | – | – | – | – | – | – | – | – | Ratio CC50/IC50 [1]: >108; CC50 [2]: > 20 µg/mL; Ratio CC50/IC50 [3]: >127; IC50 [4]: 0.19 µg/mL (≈ 0.9 µM); IC50 [6]: 0.16 µg/mL (≈ 0.758 µM) |
| O=C(O)c1cn(C2CC2)c2cc(N3CCNCC3)c(F)cc2c1=O [CIPROFLOXACIN] | – | – | – | – | – | – | – | – | – | – | 50 (≈ 151 µM) | 25 (≈ 75.4 µM) | 50 (≈ 151 µM) | 27 | 28 | 22 | 22 | – |
| CN1CCN(Cc2c([O-])on[n+]2-c2ccc(Cc3ccc(-[n+]4noc([O-])c4CN4CCN(C)CC4)cc3)cc2)CC1 | – | – | – | – | – | – | 1000 (≈ 1780 µM) | 500 (≈ 892 µM) | 500 (≈ 892 µM) | 250 (≈ 446 µM) | 62.5 (≈ 111 µM) | 250 (≈ 446 µM) | 500 (≈ 892 µM) | 19 | 19 | 22 | 16 | zone of inhibition at 250 µg/mL (Aspergillus niger [15]): 20 mm; zone of inhibition at 250 µg/mL (Aspergillus clavatus [16]): 23 mm; zone of inhibition at 250 µg/mL (Candida albicans [17]): 19 mm |
| Cc1ccc(-[n+]2noc([O-])c2CN2CCN(CCOCCO)CC2)cc1 | – | – | – | – | – | – | – | – | – | 250 (≈ 690 µM) | 500 (≈ 1380 µM) | 500 (≈ 1380 µM) | 200 (≈ 552 µM) | 21 | 16 | 16 | 19 | – |
| [O-]c1c[n+](-c2ccc(Cc3ccc(-[n+]4cc([O-])on4)cc3)cc2)no1 | > 4 | > 4 | 33.3 (≈ 99 µM) | > 20 | ≥ 20 | > 4 | – | – | – | – | – | – | – | – | – | – | – | – |
| Cc1ccc(-[n+]2cc([O-])on2)cc1 | > 20 | > 20 | 33.1 (≈ 188 µM) | > 20 | 100 | > 20 | – | – | – | – | – | – | – | – | – | – | – | – |
| NYSTATIN | – | – | – | – | – | – | 100 | 100 | 100 | – | – | – | – | – | – | – | – | inhibition zone (IZ) (Aspergillus clavatus [16]): 26 mm |
| O=C(N[C@H](CO)[C@H](O)c1ccc([N+](=O)[O-])cc1)C(Cl)Cl [CHLORAMPHENICOL] | – | – | – | – | – | – | – | – | – | 50 (≈ 155 µM) | 50 (≈ 155 µM) | 50 (≈ 155 µM) | 50 (≈ 155 µM) | 21 | 23 | 20 | 21 | – |
